Key:
20566-CC (NanA-DSM20566) [1] = target: 20566-CC (NanA-DSM20566) (Streptococcus pneumoniae, UniProt P62576, G441A/I442V/K440R); experiment: biochemical
20566-CC (NanA-DSM20566) [2] = target: T1, 20566-CC (NanA-DSM20566) (Streptococcus pneumoniae, UniProt P62576, I442V); experiment: biochemical
20566-CC (NanA-DSM20566) [3] = target: T2, 20566-CC (NanA-DSM20566) (Streptococcus pneumoniae, UniProt P62576); experiment: chemiluminescence NA-Star assay; type: biochemical; details: read-out: 50% inhibitory concentration (μM) ^a / DANA
T2 construct: catalytic domain only, residues 311-833 (523 aa), N-terminal 6xHis (pET-28a), ~62 kDa, E. coli BL21(DE3); catalytic domain printed as identical to CF8919
Excerpt: chemiluminescence NA-Star assay on 20566-CC (NanA-DSM20566)

20566-LC (NanA-DSM20566) = target: T3, 20566-LC (NanA-DSM20566) (Streptococcus pneumoniae, UniProt P62576); experiment: chemiluminescence NA-Star assay; type: biochemical; details: read-out: 50% inhibitory concentration (μM) ^a / DANA
T3 construct: lectin (CBM40) + catalytic domains, residues 116-833, N-terminal 6xHis (pET-28a), ~84 kDa, E. coli BL21(DE3), cobalt column
Excerpt: chemiluminescence NA-Star assay on 20566-LC (NanA-DSM20566)

20566-CC (NanA-DSM20566) [4] = target: 20566-CC (NanA-DSM20566) (Streptococcus pneumoniae, UniProt P62576, DEL440-442); details: read-out: 20566-CC-ΔKGI; MES, 4 mM CaCl2, pH 6.5, room temperature
20566-CC (NanA-DSM20566) [5] = target: 20566-CC (NanA-DSM20566) (Streptococcus pneumoniae, UniProt P62576, K440R/G441A/I442V); details: read-out: 20566-CC-RAV; MES, 4 mM CaCl2, pH 6.5, room temperature
20566-CC (NanA-DSM20566) [6] = target: T1, 20566-CC (NanA-DSM20566); details: read-out: 20566-CC-KGV; MES, 4 mM CaCl2, pH 6.5, room temperature
[7] = test system: CC(=O)N[C@H]1[C@H]([C@H](O)[C@H](O)CO)O[C@@](Oc2ccc3c(C)cc(=O)oc3c2)(C(=O)O)C[C@@H]1O; experiment: purified protein; details: pH 6.5
[8] = test system: CC(=O)N[C@H]1[C@H]([C@H](O)[C@H](O)CO)O[C@@](Oc2ccc3c(C)cc(=O)oc3c2)(C(=O)O)C[C@@H]1O; experiment: purified protein; details: pH 6.5; remark: listed apart in the source

CC(=O)N[C@H]1[C@H]([C@H](O)[C@H](O)CO)OC(C(=O)O)=C[C@@H]1O [DANA, 2,3-dehydro-2-deoxy-N-acetylneuraminic acid] gave an IC50 (20566-CC (NanA-DSM20566) [1]) of 0.92 ± 0.71 µM, an IC50 (20566-CC (NanA-DSM20566) [2]) of 4.56 ± 0.71 µM and an IC50 (20566-CC (NanA-DSM20566) [3]) of 2.35 ± 0.16 µM. The IC50 (20566-LC (NanA-DSM20566)) was 3.8 ± 0.5 µM.

With CC(=O)N[C@H]1[C@H]([C@H](O)[C@H](O)CO)O[C@@](Oc2ccc3c(C)cc(=O)oc3c2)(C(=O)O)C[C@@H]1O [MUNANA, 2′-(4-methylumbelliferyl)-a-D-N-acetylneuraminic acid] the Km (20566-CC (NanA-DSM20566) [4]) was > 1000 µM, the Km (20566-CC (NanA-DSM20566) [5]) was 17.9 ± 1.07 µM and the Km (20566-CC (NanA-DSM20566) [6]) was 32.8 ± 4.78 µM.

(Streptococcus pneumoniae R6) was tested, and the Km [7] was 24.50 ± 2.71 µM and the Km [8] was 25.97 ± 2.19 µM.

From PMC4850393, “Sequence diversity of NanA manifests in distinct enzyme kinetics and inhibitor susceptibility” (Scientific Reports, 2016)
